In patent US7358057B2, “QM-7 and QT-6 cells transfected with mutant cell surface expressed channel receptors and assays using the transfected cells” (Memory Pharmaceuticals Corporation, priority 2002, dated 2008):
Where two headings read alike, the source gives them in different places. Values belong to the molecule of their own block, whether it stands above or below them.

Assays:
wild type α7 receptor = target: T1, wild type α7 receptor (Homo sapiens, UniProt P36544); experiment: Real time, high throughput Ca++ imaging assay using FLIPR, QM-7 cells transiently transfected with wild type α7; format: cell-based; conditions: QM-7 cells transiently transfected with wild type human α7, Fluo 3 dye, FIG. 1
T1 construct: expressed in transfected cells; host or cells: QM-7 cells (quail), transient transfection with Lipofectamine PLUS
Description: (§1) QM-7 cells were transiently transfected with either wild type or L 270T mutant α7 receptor with Lipofectamine PLUS reagent (Invitrogen), in 175 cm^2 flasks. Twenty four hours after the transfection, the cells were collected and re-seeded into a 96-well plate at a density of 40,000 cells/well. Twenty four hours after re-seeding, the cell were incubated with Ca^++ sensitive dye Fluo 3, washed and stimulated with the selective alpha 7 agonist GTS-21. Cellular Ca^++ signal was detected with FLIPR, quantified and plotted against the concentration of GTS-21.

L270T mutant α7 receptor = target: T2, L270T mutant α7 receptor (Homo sapiens, UniProt P36544, L270T); experiment: Real time, high throughput Ca++ imaging assay using FLIPR, QM-7 cells transiently transfected with L270T mutant α7; format: cell-based
T2 construct: expressed in transfected cells; host or cells: QM-7 cells (quail), transient transfection with Lipofectamine PLUS
Description: as §1

[1] = QM-7 cells transiently transfected with human L270T α7, Fluo 3 dye, FLIPR, FIG. 1

T2 sequence (P36544 23-502 L270T): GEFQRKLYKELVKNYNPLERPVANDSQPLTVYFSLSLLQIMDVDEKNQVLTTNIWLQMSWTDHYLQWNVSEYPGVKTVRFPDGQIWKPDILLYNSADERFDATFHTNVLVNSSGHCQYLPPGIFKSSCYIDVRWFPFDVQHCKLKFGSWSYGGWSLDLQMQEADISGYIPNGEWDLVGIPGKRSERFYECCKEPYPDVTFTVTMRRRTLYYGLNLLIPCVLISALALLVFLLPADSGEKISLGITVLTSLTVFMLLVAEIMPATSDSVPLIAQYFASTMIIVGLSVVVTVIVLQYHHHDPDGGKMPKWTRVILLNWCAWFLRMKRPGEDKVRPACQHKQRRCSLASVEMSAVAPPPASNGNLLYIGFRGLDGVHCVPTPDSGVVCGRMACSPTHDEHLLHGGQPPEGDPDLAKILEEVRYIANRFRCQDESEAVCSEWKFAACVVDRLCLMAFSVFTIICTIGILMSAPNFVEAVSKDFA
T1 sequence (P36544 23-502): as the sequence (P36544 23-502 L270T) above, with T248L counted along it

- Cellular Ca++ signal on stimulation (wild type α7 receptor): failed to give a meaningful signal
- Cellular Ca++ signal on stimulation (L270T mutant α7 receptor; [1]): dose-dependent increase of Ca^++ signal
- Concentration at which the Ca++ signal saturated (L270T mutant α7 receptor; [1]): 10 µM
SMILES: COc1ccc(/C=C2\CCCN=C2c2cccnc2)c(OC)c1 [GTS-21]

SMILES: CCN1C[C@]2(COC(=O)c3ccccc3N3C(=O)C[C@H](C)C3=O)CC[C@H](OC)[C@@]34[C@@H]5C[C@H]6[C@H](OC)[C@@H]5[C@](O)(C[C@@H]6OC)[C@@](O)([C@@H](OC)[C@H]23)[C@@H]14 [MLA, Methyllycaconitine]
- Attenuation of signals from epibatidine stimulation (L270T mutant α7 receptor): attenuated

SMILES: Clc1ccc(C2CC3CCC2N3)cn1 (stereo not drawn) [epibatidine]
- Responsiveness of cells to agonist (Ca++ signal) (L270T mutant α7 receptor; QM-7 cells transiently transfected with the mutant): responsive

SMILES: CN1CCCC1c1cccnc1 (stereo not drawn) [nicotine]
- Responsiveness of cells to agonist (Ca++ signal) (L270T mutant α7 receptor): responsive
